Measurements published in ChEMBL document CHEMBL6092217 (Eur J Med Chem, 2024).

Legend:
[1] = test system: RKO; assay: Antiproliferative activity against human RKO cells assessed as cell viability incubated for 72 hrs by MTT assay; type: functional, cell-based
[2] = test system: HT-29; assay: Antiproliferative activity against human HT-29 cells assessed as cell viability incubated for 72 hrs by MTT assay; type: functional, cell-based; conditions: HT-29, 72 h
[3] = test system: PC-3; assay: Antiproliferative activity against human PC-3 cells assessed as cell viability incubated for 72 hrs by MTT assay; type: functional, cell-based; conditions: PC-3, 72 h
[4] = test system: MDA-MB-231; assay: cells; conditions: Homo sapiens, MDA-MB-231, 72 h
Description: Antiproliferative activity against human MDA-MB-231 cells assessed as cell viability incubated for 72 hrs by MTT assay

[5] = test system: HepG2; assay: Antiproliferative activity against human HepG2 cells assessed as cell viability incubated for 72 hrs by MTT assay; type: functional, cell-based; conditions: HepG2, 72 h
[6] = test system: MCF7; assay: Antiproliferative activity against human MCF7 cells assessed as cell viability incubated for 72 hrs by MTT assay; type: functional, cell-based; conditions: MCF7, 72 h
[7] = molecular target: Tubulin; assay: Inhibition of tubulin polymerization (unknown origin) in presence of GTP by fluorescence plate reader analysis; type: protein-complex assay, Homo sapiens
[8] = Binding affinity to porcine brain tubulin assessed as dissociation constant measured after 20 mins by fluorescence based analysis; set-up: species or system Sus scrofa

Compound	IC50 [1] [µM]	IC50 [2] [µM]	IC50 [3] [µM]	IC50 [4] [µM]	IC50 [5] [µM]	IC50 [6] [µM]	IC50 [7] [µM]	Kd [8] [µM]
COc1ccc(OC)c(N(C)c2nc(/C=C/c3ccccc3)nc3ccccc23)c1	> 10	> 10	> 10	> 10	> 10	> 10	–	–
COc1ccc(N(C)c2nc(/C=C/c3ccccc3OC)nc3ccccc23)cc1	> 10	8.16	0.74	> 10	> 10	> 10	–	–
CN(c1ccc(C(F)(F)F)cc1)c1nc(/C=C/c2ccccc2)nc2ccccc12	> 10	> 10	> 10	> 10	> 10	> 10	–	–
COc1ccc(N(C)c2nc(/C=C/c3ccc([N+](=O)[O-])cc3)nc3ccccc23)cc1	4.27	3.24	2.85	9.48	7.01	5.61	–	–
COc1ccc(N(C)c2nc(/C=C/c3cccc(Cl)c3)nc3ccccc23)cc1	1.37	0.71	2.18	4.17	1.73	1.06	–	–
CN(c1ccc(F)cc1)c1nc(/C=C/c2ccccc2)nc2ccccc12	0.54	0.53	1.11	2.85	0.91	1.08	–	–
COc1cc(OC)cc(N(C)c2nc(/C=C/c3ccccc3)nc3ccccc23)c1	> 10	> 10	> 10	> 10	> 10	> 10	–	–
COc1ccc(N(C)c2nc(/C=C/c3ccccc3)nc3ccccc23)cc1	0.25	0.25	0.34	1.36	1.19	0.23	–	–
CN(c1ccccc1)c1nc(/C=C/c2ccccc2)nc2ccccc12	> 10	> 10	> 10	> 10	> 10	> 10	–	–
CN(c1ccc2c(c1)OCO2)c1nc(/C=C/c2ccccc2)nc2ccccc12	0.72	2.79	1.07	3.68	1.14	1.64	–	–
COc1ccc(N(C)c2nc(/C=C/c3cccc(F)c3)nc3cccnc23)cc1	0.51	0.2	0.33	2.88	0.68	1.18	–	–
COc1cccc(OC)c1N(C)c1nc(/C=C/c2ccccc2)nc2ccccc12	> 10	> 10	> 10	> 10	> 10	> 10	–	–
COc1ccc(N(C)c2nc(/C=C/c3cccc(F)c3)nc3ccc(F)cc23)cc1	0.62	0.46	0.36	2.52	0.73	0.34	–	–
COc1ccc(N(C)c2nc(C)nc3ccccc23)cc1 [VERUBULIN]	0.009	0.007	0.01	0.023	0.013	0.014	–	–
COc1ccc(N(C)c2nc(/C=C/c3cccc(OC)c3)nc3cccc(F)c23)cc1	0.15	0.24	0.36	0.8	0.41	0.46	–	–
COc1ccc(N(C)c2nc(/C=C/c3cccc([N+](=O)[O-])c3)nc3ccccc23)cc1	0.49	0.3	0.41	0.81	0.54	1.47	–	–
COc1ccc(N(C)c2nc(/C=C/c3cccc(F)c3)nc3ccccc23)cc1	0.17	0.16	0.09	1.25	0.24	0.26	–	–
COc1ccc(N(C)c2nc(/C=C/c3ccccc3)nc3ccccc23)cc1OC	0.63	0.54	2.85	7.03	2.84	2.05	–	–
COc1ccc(N(C)c2nc(/C=C/c3ccc(Cl)cc3Cl)nc3ccccc23)cc1	1.76	4.75	1.45	> 10	> 10	> 10	–	–

Compound	IC50 [1] [µM]	IC50 [2] [µM]	IC50 [3] [µM]	IC50 [4] [µM]	IC50 [5] [µM]	IC50 [6] [µM]	IC50 [7] [µM]	Kd [8] [µM]
COc1ccc(/C=C/c2nc(N(C)c3ccc(OC)cc3)c3ccccc3n2)cc1	0.94	0.89	2.75	1.8	4.48	3.66	–	–
COc1ccc(N(C)c2nc(/C=C/c3cc(OC)c(OC)c(OC)c3)nc3ccccc23)cc1	> 10	> 10	8.34	> 10	> 10	> 10	–	–
COc1cc(N(C)c2nc(/C=C/c3ccccc3)nc3ccccc23)cc(OC)c1OC	> 10	> 10	> 10	> 10	> 10	> 10	–	–
COc1ccc(N(C)c2nc(/C=C/c3cccc(Cl)c3Cl)nc3ccccc23)cc1	5.75	1.42	2.99	> 10	> 10	> 10	–	–
CN(c1ccc2c(c1)OCCO2)c1nc(/C=C/c2ccccc2)nc2ccccc12	0.41	0.67	1.46	2.06	3.44	0.32	–	–
COc1ccc(N(C)c2nc(/C=C/c3cccc(OC)c3)nc3ccc(F)cc23)cc1	0.24	0.28	0.65	1.06	0.36	0.8	–	–
COc1ccc(N(C)c2nc(/C=C/c3ccc(Cl)cc3)nc3ccccc23)cc1	0.46	0.31	0.62	0.83	0.94	0.61	–	–
COc1ccc(N(C)c2nc(/C=C/c3cccc(Br)c3)nc3ccccc23)cc1	> 10	> 10	7.38	9.86	> 10	> 10	–	–
COc1ccc(N(C)c2nc(/C=C/c3cccc(OC)c3OC)nc3ccccc23)cc1	1.34	0.88	1.1	5.06	4.82	4.09	–	–
CN(c1ccc2occc2c1)c1nc(/C=C/c2ccccc2)nc2ccccc12	1.59	2.84	7.41	6.57	4	2.56	–	–
COc1ccc(N(C)c2nc(/C=C/c3ccc(OC)c(OC)c3OC)nc3ccccc23)cc1	0.22	0.17	0.49	0.6	0.53	0.41	–	–
COc1ccc(N(C)c2nc(/C=C/c3ccccc3)nc3ccccc23)c(OC)c1	0.65	0.75	2.75	5.73	8.22	1.9	–	–
COc1ccc(N(C)c2nc(/C=C/c3cccc(F)c3)nc3cccc(F)c23)cc1	0.22	0.21	0.4	0.43	0.49	0.39	–	–
COc1ccc(N(C)c2nc(/C=C/c3ccc(C)cc3)nc3ccccc23)cc1	1.71	0.46	0.46	2.56	3.01	3.11	–	–
COc1ccc(N(C)c2nc(/C=C/c3ccc(OC)cc3OC)nc3ccccc23)cc1	0.12	0.047	0.11	0.24	0.22	0.14	> 10	43.3
COc1ccc(N(C)c2nc(/C=C/c3ccc(OC)c(OC)c3)nc3ccccc23)cc1	2.73	2.01	1.46	7.24	2.74	3.5	–	–
O=c1[nH]cc(F)c(=O)[nH]1 [FLUOROURACIL]	> 10	> 10	> 10	> 10	> 10	> 10	–	–
CN(c1ccc(OC(F)(F)F)cc1)c1nc(/C=C/c2ccccc2)nc2ccccc12	> 10	> 10	> 10	> 10	> 10	> 10	–	–
